Some test systems named below: KM12 colon; DU-145 prostate; SF-268 CNS; 786-0 renal; A498 renal; HS 578T breast; RPMI-8226 leukemia; NCI-H23 lung; OVCAR-5 ovarian; HCC-2998 colon; BT-549 breast; IGROV1 ovarian; NCI-H226 lung.
Common to all, as to assay: DTP human tumour cell line panel, 48 h

“And” between values parts separate entries of the source, which are not always exact repeats. Identical values can stand only once.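 96-well plates; 48 h exposure; 5 concentrations. Endpoints by linear interpolation between flanking doses. Not reached: highest tested concentration assigned. Here, GI50 denotes the concentration required for 50% inhibition of growth. The concentration for full growth arrest is given as TGI.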

By TGI is commonly meant the concentration giving total growth inhibition. With `O=c1ccc(-c2ccc(-n3ccnc3)cc2)nn1CCO`, the TGI in the experiment on KM12 colon, in the experiment on DU-145 prostate, in the experiment with SF-268 CNS, in the experiment with 786-0 renal, with A498 renal and in the experiment with HS 578T breast was greater than 100 µM throughout. Also, the TGI with RPMI-8226 leukemia, in the experiment on NCI-H23 lung, in the experiment with OVCAR-5 ovarian, in the experiment on HCC-2998 colon, with BT-549 breast and with IGROV1 ovarian was greater than 100 µM throughout.
As for `CCOC(=O)C12C3CCC1C2C(=O)C3` (stereo unspecified), the TGI in the experiment on KM12 colon, with DU-145 prostate, in the experiment on NCI-H226 lung, in the experiment on SF-268 CNS, with 786-0 renal and in the experiment with RPMI-8226 leukemia was greater than 100 µM in each case. In addition, the TGI with NCI-H23 lung, in the experiment on OVCAR-5 ovarian, in the experiment on HCC-2998 colon, in the experiment on BT-549 breast and in the experiment on IGROV1 ovarian was greater than 100 µM in each case.
Regarding `Cc1ccc(-n2nnc3c(NNc4ccccc4)n[nH]c(=O)c32)cc1`, the TGI with KM12 colon, in the experiment with DU-145 prostate, in the experiment on NCI-H226 lung, in the experiment on 786-0 renal, in the experiment with RPMI-8226 leukemia and in the experiment with NCI-H23 lung was greater than 100 µM each time. In addition, the TGI in the experiment with OVCAR-5 ovarian, in the experiment on HCC-2998 colon and in the experiment on BT-549 breast was greater than 100 µM in each case.
On to `CCCOP1(=O)C=C(C)C(Cl)=C(C)C1` (stereo unspecified), for which the TGI came out at 43 µM with KM12 colon; 52.2 µM with NCI-H226 lung; 45.2 µM in the experiment on SF-268 CNS; 36.7 µM in the experiment with 786-0 renal; 35.5 µM in the experiment on RPMI-8226 leukemia; 37 µM with NCI-H23 lung. In addition, the TGI in the experiment with OVCAR-5 ovarian was 77.4 µM; in the experiment on HCC-2998 colon, greater than 100 µM; with IGROV1 ovarian, greater than 100 µM.
Turning to `CCOC(=O)/C(=C\NC[C@@H](C)O)c1nc2ccccc2[nH]1`, the TGI is greater than 100 µM in the experiment with KM12 colon; greater than 100 µM in the experiment on DU-145 prostate; greater than 100 µM with SF-268 CNS; greater than 100 µM with 786-0 renal; greater than 100 µM in the experiment on A498 renal; 63.3 µM in the experiment with RPMI-8226 leukemia. Also, the TGI in the experiment with NCI-H23 lung, in the experiment on OVCAR-5 ovarian, in the experiment on HCC-2998 colon, with BT-549 breast and in the experiment with IGROV1 ovarian was greater than 100 µM each time.
With `COC(=O)/C=C/COCC1C2CCC(=O)C21` (stereo unspecified), the TGI with KM12 colon, in the experiment on DU-145 prostate, in the experiment with NCI-H226 lung, in the experiment with SF-268 CNS, with 786-0 renal and in the experiment on RPMI-8226 leukemia was greater than 100 µM in each case. The TGI in the experiment with NCI-H23 lung, in the experiment on OVCAR-5 ovarian, with HCC-2998 colon, in the experiment with BT-549 breast and in the experiment with IGROV1 ovarian was greater than 100 µM in each case.
As a reminder, the GI50 is the concentration that inhibits growth by half. As to `CC[C@@]1(O)C(=O)OCc2c1cc1n(c2=O)Cc2c-1nc1ccccc1c2C=Nc1ccc(N[C@@H]2c3cc4c(cc3[C@@H](c3cc(OC)c(O)c(OC)c3)[C@H]3C(=O)OC[C@@H]32)OCO4)cc1`, the GI50 was 1.69 µM and 0.269 µM in the experiment with KM12 colon; 0.0483 µM and 0.0179 µM with NCI-H226 lung; 0.21 µM and 0.0448 µM with A498 renal; 0.545 µM and 0.141 µM in the experiment with OVCAR-5 ovarian; 0.369 µM and 0.131 µM in the experiment with HCC-2998 colon; 0.274 µM and 0.132 µM in the experiment with IGROV1 ovarian. Moreover, the concentration for total growth inhibition (TGI) is > 44.3 µM and 6.24 µM with KM12 colon; 0.18 µM and 0.028 µM in the experiment with DU-145 prostate; 2.71 µM and 0.308 µM in the experiment on NCI-H226 lung; greater than 100 µM in the experiment with SF-268 CNS; 0.329 µM in the experiment on 786-0 renal; 1.72 µM and 0.261 µM in the experiment on A498 renal. For the same compound, the TGI in the experiment on HS 578T breast is greater than 100 µM; in the experiment with NCI-H23 lung, 0.133 µM.
Take `CC12CC(=O)OC(Cc3ccccc31)O2` (stereo unspecified): the TGI with KM12 colon, in the experiment with NCI-H226 lung, in the experiment with SF-268 CNS, with 786-0 renal, in the experiment with RPMI-8226 leukemia and in the experiment with NCI-H23 lung was greater than 100 µM in each case. Besides, the TGI in the experiment with HCC-2998 colon and in the experiment on IGROV1 ovarian was greater than 100 µM each time.
`CN1NC2=NCCN=C3NN(C)C(=NCCN=C1S2)S3`: the total growth inhibition concentration (TGI) in the experiment on KM12 colon, with NCI-H226 lung, in the experiment on SF-268 CNS, with 786-0 renal, in the experiment on A498 renal and in the experiment with RPMI-8226 leukemia was greater than 100 µM throughout. Further, the TGI in the experiment with NCI-H23 lung, with OVCAR-5 ovarian and in the experiment on IGROV1 ovarian was greater than 100 µM in each case.
In the case of `CC[N+](C)(C)c1ccc(C(=C2C=CC(=[N+](C)C)C=C2)c2ccc(N(C)C)cc2)cc1`, the TGI with KM12 colon came to 17.5 µM; in the experiment with NCI-H226 lung it was 52.8 µM; in the experiment with SF-268 CNS, 32.4 µM; with 786-0 renal it was 29 µM; in the experiment on A498 renal it was 48.4 µM; in the experiment with RPMI-8226 leukemia, 7.36 µM. The TGI in the experiment on NCI-H23 lung is 55 µM; in the experiment with OVCAR-5 ovarian it was greater than 100 µM; in the experiment on HCC-2998 colon it was 32.3 µM; with IGROV1 ovarian it was 40.8 µM.
With `COC(=O)CC(SCCO)SCCO`, the TGI in the experiment with KM12 colon, in the experiment on DU-145 prostate, with NCI-H226 lung, in the experiment on SF-268 CNS, in the experiment with 786-0 renal and in the experiment on A498 renal was greater than 100 µM each time. Further, the concentration for total growth inhibition (TGI) in the experiment on HS 578T breast, in the experiment with RPMI-8226 leukemia, with NCI-H23 lung, in the experiment with OVCAR-5 ovarian, in the experiment on HCC-2998 colon and in the experiment on IGROV1 ovarian was greater than 100 µM each time.
